Source: patent publication US20050085539A1, “Method of reducing toxicity of retinoids” (priority 2003, published 2005)

Experiments:
Format in all cases: in vivo, rat
vitamin A-deficient rats [1] = assay: Growth of vitamin A-deficient rats given the compounds orally in Wesson oil; details: for growth (weight change) of vitamin A-deficient rats: 83 pmoles/day oral in Wesson oil; for growth (weight change) of vitamin A-deficient rats / growth response of vitamin A-deficient rats: 5-day period; for activity relative to atRA in supporting growth of vitamin A-deficient rats: estimate from FIG. 4, 83 pmole/day, 5 days; for growth response of vitamin A-deficient rats: 166 pmoles/day oral in Wesson oil
Source text: The first test was to determine if the esterified compounds when given orally could restore normal growth of vitamin A-deficient rats. For this study, Sprague-Dawley, weanling rats were obtained from Harlan (Indianapolis, Ind.). They were fed the purified vitamin A-deficient diet previously described (Suda et al., 1970, J. Nutr. 100:1049-1052) supplemented with vitamins D, E and K (White et al., 1998, Proc. Natl. Acad. Sci. USA 95:13459-13464). When the animals stopped growing and began to lose weight, they were administered the indicated doses per day dissolved in Wesson oil. Controls were given the Wesson oil alone (vehicle group). The weight change over the 5-day study period was analyzed by ANOVA, followed by a matrix of pairwise comparison probabilities using four post-hoc tests when the overall P value was less then 0.05. The post-hoc comparison tests included: Turkey HSD multiple comparisons, Sheffe test, Fisher's least-significant-difference test and the Bonferroni adjustment test.
Weanling male rats were obtained from the Harlan Company and were housed individually in hanging wire cages and fed the vitamin A-deficient diet described previously (Suda et al., 1970, J. Nutr. 100:1049-1052). At approximately 70 days of age, the animals began to show a leveling off of growth and began to show weight loss. At this time, they were used for the following studies: They were given either 0.1 ml of Wesson oil (vehicle) or the indicated dose of atRA dissolved in the vehicle or one of the derivatives at the indicated dose dissolved in the vehicle. Body weights were recorded daily and plotted as cumulative weight gain or loss over the study period as indicated on the graphs. A daily dose of 83 pmoles (25 μg/day) of atRA is near the minimum amount needed to produce normal growth in […] rats as compared to the vehicle controls that continue to lose weight (FIG. 1). […] When the dose was increased to 50 μg/day of atRA or 59.5 μg/day of the t-butyl derivative, as expected, the growth response was identical.

vitamin A-deficient rats [2] = assay: as above; details: daily oral dose (25 μg/day)
normal male rats = assay: Acute toxicity of atRA versus t-butyl-RA in normal male rats
Description: Two independent toxicity studies were carried out with the t-butyl-RA derivative. […] However, the difference in testes weights between the atRA and t-butyl-RA groups was not statistically significant due to rather large biological variability.
We next examined the actute toxicity of the t-butyl derivative as compared to the atRA derivative in two independent trails. In these experiments, normal male rats weighing approximately 250-300 grams were used. They were individually housed in cages and given Purina lab chow as well as water ad libitum. […] This is an extremely large dose, and represents at least 3,600 times the amount of the t-butyl derivative needed to support a physiological growth response in vitamin A-deficient rats. […] Another indication of toxicity is testes weight as illustrated in FIG. 7.

[3] = 1 mmole/kg/day for 5 days, second study (FIG. 6)

SMILES | growth (weight change) of vitamin A-deficient rats (vitamin A-deficient rats [1]) | daily dose near the minimum amount needed to produce normal growth (vitamin A-deficient rats [2]) | activity relative to atRA in supporting growth of vitamin A-deficient rats (vitamin A-deficient rats [1]) | growth response of vitamin A-deficient rats (vitamin A-deficient rats [1]) | growth response of vitamin A-deficient rats (vitamin A-deficient rats [1]; listed as t-butyl derivative) | apparent toxicity / outward symptoms (normal male rats; [3]) | body weight change (normal male rats; [3]) | body weight change (normal male rats; 1 mmole/kg/day, 7 days, first study (FIG. 5))
CC1=C(/C=C/C(C)=C/C=C/C(C)=C/C(=O)O)C(C)(C)CCC1 [atRA, all-trans-retinoic acid, reference compound] | superior to that of the cholesterol ester-fed group | ~83 nmol |  |  |  |  |  | 
CC1=C(/C=C/C(C)=C/C=C/C(C)=C/C(=O)O[C@H]2CC[C@@]3(C)C(=CCC4C3CC[C@@]3(C)C4CC[C@@H]3[C@H](C)CCCC(C)C)C2)C(C)(C)CCC1 (stereo partly drawn) [cholesterol ester, all-trans-retinoic acid cholesterol ester] | significantly enhanced growth compared to vehicle control animals |  | one-third |  |  |  |  | 
CC1=C(/C=C/C(C)=C/C=C/C(C)=C/C(=O)OC(C)(C)C)C(C)(C)CCC1 [t-butyl-RA, all-trans-retinoic acid tert-butyl ester] | did not differ significantly from that of the group fed an equal molar amount of atRA |  | equal to atRA in potency and efficacy | equivalent | identical | no apparent toxicity | equal body weight accumulation | enabled continued growth
